Structure (SMILES)	glass transition temperature [°C]
*C(=O)Nc1ccc(C2(c3ccc(NC(=O)c4ccc5c(c4)C(=O)N(c4ccc(Oc6cccc(Oc7ccc(N8C(=O)c9ccc(*)cc9C8=O)cc7)c6)cc4)C5=O)cc3)c3ccccc3-c3ccccc32)cc1 (repeat unit)	278.00
*c1ccc(Sc2cc3c(cc2Sc2ccc(N4C(=O)c5ccc(Oc6ccc7c(c6)C(=O)N(*)C7=O)cc5C4=O)cc2)C(=O)N(c2ccc(CC)cc2)C3=O)cc1 (repeat unit)	271.00
*CCOC(=O)/C=C/C(=O)O* (repeat unit)	-10.00
*Oc1c(C)cc(C2(c3cc(C)c(Oc4ccc(C(=O)c5cccc(C(=O)c6ccc(*)cc6)c5)cc4)c(C)c3)CCC3CCCCC3C2)cc1C (repeat unit)	224.00
*c1ccc(-c2ccc(N(c3ccc(OC)cc3)c3ccc4ccc(N(*)c5ccc(OC)cc5)cc4c3)cc2)cc1 (repeat unit)	232.00
*Oc1ccc(C(C)(C)c2ccc(Oc3ccc(C(=O)c4ccc(P(=O)(c5ccccc5)c5ccc(C(=O)c6ccc(*)cc6)cc5)cc4)cc3)cc2)cc1 (repeat unit)	195.00
*C(=O)c1ccc2c(c1)C(=O)N(c1cc(OCCCCCCCC)cc(N3C(=O)c4ccc(*)cc4C3=O)c1)C2=O (repeat unit)	195.00
*CCCCCCN1C(=O)C(=O)N(c2ccc(CCc3ccccc3N3C(=O)C(=O)N(*)C3=O)cc2)C1=O (repeat unit)	137.00
*C1C(*)C2CC1C(C(=O)OCCCc1ccccc1)C2C(=O)OCCCc1ccccc1 (repeat unit)	200.00
*c1ccc(Oc2ccc(S(=O)(=O)c3ccc(Oc4ccc(-c5cc(*)[nH]n5)cc4)cc3)cc2)cc1 (repeat unit)	260.00
*[Si](*)(CCCC)CCCCC (repeat unit)	-26.00
*c1ccc(OCCCCCOc2ccc(N3C(=O)c4ccc(-c5cccc6c5C(=O)N(*)C6=O)cc4C3=O)cc2)cc1 (repeat unit)	208.00
*CC(*)C(=O)OCCCCCCCCCCCOc1ccc(C(=O)Oc2ccc(-c3ccc(OC(C)CCCCCC)cc3)cc2)cc1 (repeat unit)	50.00
*OP(=O)(Oc1ccc(C)cc1)Oc1c(C)cc(S(=O)(=O)c2cc(C)c(*)c(C)c2)cc1C (repeat unit)	128.00
*Oc1ccc(S(=O)(=O)c2ccc(Oc3ccc(C(c4ccc(*)cc4)C(C)C)cc3)cc2)cc1 (repeat unit)	200.00
*CCCCCCCCCCNC(=O)c1ccc(C(=O)N*)c(Sc2ccccc2)c1 (repeat unit)	100.00
*C1CCC(N2C(=O)c3ccc(S(=O)(=O)c4ccc5c(c4)C(=O)N(*)C5=O)cc3C2=O)CC1 (repeat unit)	363.00
*O[Si](C)(C)O[Si](C)(C)O[Si](C)(C)O[Si](C)(C)c1cccc([Si](*)(C)C)c1 (repeat unit)	-75.00
*c1cccc(N2C(=O)c3cccc(Oc4c(C)cc(-c5cc(C)c(Oc6cccc7c6C(=O)N(*)C7=O)c(C)c5)cc4C)c3C2=O)c1 (repeat unit)	311.00
*CCOC(=O)C1CCC(C(=O)OCCOc2ccc(C3(c4ccc(O*)cc4)c4ccccc4-c4ccccc43)cc2)CC1 (repeat unit)	120.1

Structure (SMILES)	glass transition temperature [°C]
*c1ccccc1C(=O)Oc1ccc2c(*)c3ccc(=O)cc-3oc2c1 (repeat unit)	250.00
*CC(*)c1ccccc1COC(C)C (repeat unit)	88.00
*c1ccc(Oc2ccc(N3C(=O)c4ccc(Oc5ccc(C6(c7ccc(Oc8ccc9c(c8)C(=O)N(*)C9=O)cc7)CCC(c7ccccc7)CC6)cc5)cc4C3=O)cc2)cc1 (repeat unit)	236.00
*CCOP(=O)(/N=N/c1ccc(C(=O)c2ccc(/N=N/P(=O)(O*)OCC)cc2)cc1)OCC (repeat unit)	33.00
*CC(*)CC[Si](C)(C)C (repeat unit)	132.00
*CCC(C)S* (repeat unit)	-59.00
*Cc1ccccc1CN(CC)c1ccc(/C=C/c2ccc(/C=C(\C#N)C(=O)NC3CCCCC3NC(=O)/C(C#N)=C/c3ccc(/C=C/c4ccc(N(*)CC)cc4)cc3)cc2)cc1 (repeat unit)	201.00
*CC(*)c1cc(Br)ccc1OCCCC (repeat unit)	47.00
*CC(C)(N=C=O)C1C(=O)OC(=O)C1* (repeat unit)	100.00
*CC(*)OC(=O)CC1CCCCC1 (repeat unit)	25.00
*Oc1ccc(S(=O)(=O)c2ccc(Oc3ccc(C(=O)c4ccc(*)cc4)cc3)cc2)cc1 (repeat unit)	205.00
*C(=O)Nc1ccc(Oc2ccc(S(=O)(=O)c3ccc(Oc4ccc(NC(=O)c5ccc6c(c5)C(=O)N(c5ccc(Oc7ccc8ccc(Oc9ccc(N%10C(=O)c%11ccc(*)cc%11C%10=O)cc9)cc8c7)cc5)C6=O)cc4)cc3)cc2)cc1 (repeat unit)	274.00
*/C=C/c1cc(OCC(CC)CCCC)c(/C=C/c2ccc3c4ccc(*)cc4n(CC(CC)CCCC)c3c2)cc1OCC(CC)CCCC (repeat unit)	61.00
*c1ccc(Oc2ccc(C(=O)c3cccc(C(=O)c4ccc(Oc5ccc(-c6nc(-c7cccc(-c8nc(*)c(-c9ccccc9)[nH]8)c7)[nH]c6-c6ccccc6)cc5)cc4)c3)cc2)cc1 (repeat unit)	256.50
*CCCCCCN(C)c1ccc(C(=O)c2ccc(N(*)C)cc2)cc1 (repeat unit)	75.50
*c1ccc(C(F)(F)C(*)(F)F)cc1 (repeat unit)	77.0
*c1cccc(Oc2cccc(Oc3cccc(N4C(=O)c5ccc(Oc6ccc7c(c6)C(=O)N(*)C7=O)cc5C4=O)c3)c2C#N)c1 (repeat unit)	219.00
*CC(*)C(=O)Oc1ccc([N+](=O)[O-])cc1 (repeat unit)	73.30
*CCCCCCCCCCOC(=O)NCCCCCCNC(=O)O* (repeat unit)	55.00
*CC(*)(C)c1ccc(C(C)C)cc1 (repeat unit)	140.00

More lines, now with the values ahead:

glass transition temperature [°C]	Structure (SMILES)
100.00	*CCC1C(=O)N(CCCCNC(=O)C(F)(F)C(F)(F)C(F)(F)C(F)(F)C(F)(F)C(F)(F)C(F)(F)F)C(=O)C1* (repeat unit)
63.00	*CC(*)(F)C(=O)OCC(F)(F)C(F)(F)C(F)(F)C(F)(F)F (repeat unit)
50.00	*CC(*)(C)C(=O)OCCCCCC(=O)Oc1ccc(OC(=O)c2ccc(OCCCCC)cc2)cc1 (repeat unit)
228.00	*c1ccc(/C=C/c2ccc(-n3c(=O)c4cc5c(=O)n(*)c(=O)c5cc4c3=O)cc2S(=O)(=O)[O][Na])c(S(=O)(=O)[O][Na])c1 (repeat unit)
178.00	*CCN(CCOC(=O)Nc1ccc(C)c(NC(=O)O*)c1)c1ccc(/C=C2/NC(=O)NC2=O)cc1 (repeat unit)
137.00	*CC(*)(C)C(=O)OCCOc1ccc(C(=O)Oc2ccc(OCCCC)cc2)cc1 (repeat unit)
89.00	*OC(=O)C(CC(C)C)NC(=O)CCCCCCCCC(=O)NC(CC(C)C)C(=O)OC1COC2C(*)COC12 (repeat unit)
133.00	*Nc1ccc(NC(=O)CCCCC(*)=O)cc1 (repeat unit)
185.00	*c1ccc(Oc2ccccc2Oc2ccc(N3C(=O)c4ccc(Oc5ccccc5Oc5ccc6c(c5)C(=O)N(*)C6=O)cc4C3=O)cc2C(F)(F)F)c(C(F)(F)F)c1 (repeat unit)
32.00	*CC(O)COC(=O)/C=C/C(=O)Oc1ccc(C(C)(C)c2ccc(O*)cc2)cc1 (repeat unit)
79.00	*/C=C/c1cc(OCC(CC)CCCC)c(*)cc1OC (repeat unit)
147.00	*C(F)(F)C1(F)C(F)(F)C(*)(F)C(F)(F)C(F)(Cl)C1(F)F (repeat unit)
22.00	*CC(*)C(=O)OCCOc1ccc(C(C)(C)c2ccc(OCCO)cc2)cc1 (repeat unit)
-64.00	*CC[Si](C)(C)O[Si]1(*)O[Si](C)(C)O[Si](C)(C)O1 (repeat unit)
27.7	*/C=C/C1=C(*)CC(C(=O)OCC)(C(=O)OCC)C1 (repeat unit)
311.00	*C(=O)c1ccc2c(c1)C(=O)N(c1ccc(C(c3ccccc3)(c3ccc(N4C(=O)c5ccc(*)cc5C4=O)cc3)C(F)(F)F)cc1)C2=O (repeat unit)
280.00	*Nc1ccc(NC(=O)c2ccc(NC(=O)CCCCCCCCC(=O)Nc3ccc(C(*)=O)cc3)cc2)cc1C(=O)OCCCCCCCCCCCCCCCCCC (repeat unit)
51.00	*Oc1ccc(CC(NC(=O)Cc2ccc(OC(=O)COCC(*)=O)cc2)C(=O)OCCCCCCCC)cc1 (repeat unit)
64.00	*Oc1ccc(CC(NC(=O)CCc2ccc(OC(=O)COCC(*)=O)cc2)C(=O)OCCCC)cc1 (repeat unit)
83.10	*Oc1cccc(OC(=O)Oc2ccc(C(C)(C)c3ccc(OC(*)=O)cc3)cc2)c1 (repeat unit)
113.00	*Oc1ccc(C(c2ccc(Oc3c(F)c(F)c(COC(c4cccc(C(OCc5c(F)c(F)c(*)c(F)c5F)(C(F)(F)F)C(F)(F)F)c4)(C(F)(F)F)C(F)(F)F)c(F)c3F)cc2)(C(F)(F)F)C(F)(F)F)cc1 (repeat unit)
78.00	*Oc1ccc(Sc2ccc(OC3(F)C(*)(F)C(F)(F)C3(F)F)cc2)cc1 (repeat unit)
131.2	*OC1C(COCC)OC(*)C(OCC)C1OCC (repeat unit)
176.00	*c1cc(/N=N/c2ccc(C#N)cc2)cc(*)c1O (repeat unit)
250.00	*Oc1ccc(C(C)(C)c2ccc(Oc3ccc(C(=O)Nc4ccc(-c5ccc(NC(=O)c6ccc(*)cc6)cc5C(F)(F)F)c(C(F)(F)F)c4)cc3)cc2)cc1 (repeat unit)
280.00	*c1ccc(Cc2ccc(N3C(=O)c4ccc([Si](C)(C)c5ccc6c(c5)C(=O)N(*)C6=O)cc4C3=O)cc2)cc1 (repeat unit)
